In ChEMBL document CHEMBL1201862, “PubChem BioAssay data set” (2004):
Active and inactive are the calls of the source.

Key:
[1] = target: T1, Methionyl-tRNA synthetase, putative (Trypanosoma brucei brucei, UniProt Q38C91); assay type: functional, Trypanosoma brucei brucei strain 927/4 GUTat10.1
T1 sequence (Q38C91 whole entry): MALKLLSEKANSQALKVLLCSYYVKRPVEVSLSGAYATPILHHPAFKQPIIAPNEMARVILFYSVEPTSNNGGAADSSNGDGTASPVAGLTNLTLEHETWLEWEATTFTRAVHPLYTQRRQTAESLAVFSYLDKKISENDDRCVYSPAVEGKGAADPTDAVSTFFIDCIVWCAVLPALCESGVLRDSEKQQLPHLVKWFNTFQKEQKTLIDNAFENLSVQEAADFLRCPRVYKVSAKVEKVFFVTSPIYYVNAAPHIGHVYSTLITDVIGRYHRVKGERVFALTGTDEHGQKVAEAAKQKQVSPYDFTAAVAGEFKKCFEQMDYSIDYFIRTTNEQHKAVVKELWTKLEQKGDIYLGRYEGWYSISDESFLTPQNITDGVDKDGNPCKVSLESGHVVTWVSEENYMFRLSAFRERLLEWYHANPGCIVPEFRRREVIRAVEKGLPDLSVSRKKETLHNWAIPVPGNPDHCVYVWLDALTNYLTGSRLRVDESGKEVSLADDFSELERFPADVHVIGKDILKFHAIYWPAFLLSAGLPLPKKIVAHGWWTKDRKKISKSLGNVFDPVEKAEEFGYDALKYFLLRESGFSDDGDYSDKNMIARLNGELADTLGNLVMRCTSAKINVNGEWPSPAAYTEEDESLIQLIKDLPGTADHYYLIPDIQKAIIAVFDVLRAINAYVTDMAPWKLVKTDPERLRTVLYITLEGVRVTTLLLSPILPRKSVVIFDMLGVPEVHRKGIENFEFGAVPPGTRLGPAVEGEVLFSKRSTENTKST

[2] = Counterscreen for inhibitors of Trypanosoma brucei methionyl tRNA synthetase (MetRS): Luminescence-based cell-based high throughput dose response assay to identify compounds that are cytotoxic to Jurkat human T lymphocyte cells.; assay type: functional
[3] = target: Transitional endoplasmic reticulum ATPase (Homo sapiens, UniProt P55072, C522A); assay: C522A mutant p97 ATPase inhibitors, dose response, counter-screen for p97 inhibitor project, biochemical, luminescence (AID 1544)
Protein RecA = target: T2, Protein RecA (Mycobacterium tuberculosis, UniProt P9WHJ3); assay: Fluorescence Cell-Free Homogeneous Dose Retest to Identify Inhibitors of RecA-Intein Splicing Activity. [Related pubchem assays (depositor defined):AID2097, AID2223, AID489010, AID492950]; assay type: functional
T2 sequence (P9WHJ3 whole entry): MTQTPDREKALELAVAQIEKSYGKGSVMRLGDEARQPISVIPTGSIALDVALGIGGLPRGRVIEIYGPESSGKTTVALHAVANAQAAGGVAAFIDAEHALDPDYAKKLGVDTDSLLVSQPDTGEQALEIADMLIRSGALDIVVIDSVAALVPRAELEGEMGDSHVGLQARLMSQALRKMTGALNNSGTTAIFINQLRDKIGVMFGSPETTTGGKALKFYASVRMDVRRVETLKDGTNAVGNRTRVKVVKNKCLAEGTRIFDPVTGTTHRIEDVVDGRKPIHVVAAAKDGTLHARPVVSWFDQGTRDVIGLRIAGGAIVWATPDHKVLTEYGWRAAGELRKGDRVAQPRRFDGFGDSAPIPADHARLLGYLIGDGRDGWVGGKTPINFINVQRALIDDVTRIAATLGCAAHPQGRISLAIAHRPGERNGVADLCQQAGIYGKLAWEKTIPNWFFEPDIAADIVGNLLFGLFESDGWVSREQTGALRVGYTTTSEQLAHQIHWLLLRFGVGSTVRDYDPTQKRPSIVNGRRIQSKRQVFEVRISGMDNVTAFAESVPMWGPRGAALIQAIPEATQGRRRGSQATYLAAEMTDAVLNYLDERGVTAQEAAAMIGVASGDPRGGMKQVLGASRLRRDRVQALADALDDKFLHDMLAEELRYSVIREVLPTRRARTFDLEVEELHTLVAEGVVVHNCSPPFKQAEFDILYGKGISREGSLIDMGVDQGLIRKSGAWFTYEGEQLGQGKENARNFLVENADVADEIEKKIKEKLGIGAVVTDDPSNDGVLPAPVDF

[4] = target: T3, Heat shock factor protein 1 (Mus musculus, UniProt P38532); assay: HSF1 potentiators in luciferase reporter cells, confirmation, cell-based, NIH3T3, luminescence, dose retest (AID 435004); assay type: functional;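 further: stress induced by proteasome inhibitor MG132 added 30 min after compound; luciferase reporter driven by HSF1 response element in NIH3T3 cells; actives raise luminescence as potentiators of the MG132 stress response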
T3 sequence (P38532 whole entry): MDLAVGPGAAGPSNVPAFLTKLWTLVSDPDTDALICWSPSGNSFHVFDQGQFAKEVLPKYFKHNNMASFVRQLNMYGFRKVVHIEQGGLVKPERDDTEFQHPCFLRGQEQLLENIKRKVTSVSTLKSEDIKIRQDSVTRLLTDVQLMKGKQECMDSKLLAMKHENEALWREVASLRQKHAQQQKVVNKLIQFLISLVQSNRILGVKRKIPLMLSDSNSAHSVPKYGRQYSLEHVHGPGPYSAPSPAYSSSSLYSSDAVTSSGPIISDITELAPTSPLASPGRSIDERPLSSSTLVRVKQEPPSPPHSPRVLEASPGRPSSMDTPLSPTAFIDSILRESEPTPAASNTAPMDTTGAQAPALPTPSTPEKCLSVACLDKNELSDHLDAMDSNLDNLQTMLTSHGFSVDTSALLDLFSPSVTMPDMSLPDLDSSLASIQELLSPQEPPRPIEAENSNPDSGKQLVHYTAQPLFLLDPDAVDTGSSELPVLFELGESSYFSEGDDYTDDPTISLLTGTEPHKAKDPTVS

[5] = target: T1, Methionyl-tRNA synthetase, putative; assay type: functional, Trypanosoma brucei brucei strain 927/4 GUTat10.1; remark: listed apart in the source
[6] = target: Transitional endoplasmic reticulum ATPase (Homo sapiens, UniProt P55072); assay: p97 ATPase inhibitors, dose response, biochemical (AID 1534)
[7] = target: Tyrosyl-DNA phosphodiesterase 2 (Homo sapiens, UniProt O95551); assay: human TDP2 enzyme inhibitors, dose response, biochemical, epi absorbance, IC50 (AID 743297)
[8] = target: Ras and Rab interactor 1/Tyrosine-protein kinase ABL1 (Homo sapiens, UniProt P00519+Q13671); assay type: functional;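 further: biochemical TR-FRET dose-response test measuring inhibition of binding between Rin1 and Abl proteins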
[9] = target: T4, Replicative DNA helicase DnaB (Mycobacterium tuberculosis, UniProt P9WMR3); assay: DnaB intein splicing inhibitors, dose response, biochemical, cell-free fluorescence (AID 449749); assay type: functional
T4 sequence (P9WMR3 whole entry): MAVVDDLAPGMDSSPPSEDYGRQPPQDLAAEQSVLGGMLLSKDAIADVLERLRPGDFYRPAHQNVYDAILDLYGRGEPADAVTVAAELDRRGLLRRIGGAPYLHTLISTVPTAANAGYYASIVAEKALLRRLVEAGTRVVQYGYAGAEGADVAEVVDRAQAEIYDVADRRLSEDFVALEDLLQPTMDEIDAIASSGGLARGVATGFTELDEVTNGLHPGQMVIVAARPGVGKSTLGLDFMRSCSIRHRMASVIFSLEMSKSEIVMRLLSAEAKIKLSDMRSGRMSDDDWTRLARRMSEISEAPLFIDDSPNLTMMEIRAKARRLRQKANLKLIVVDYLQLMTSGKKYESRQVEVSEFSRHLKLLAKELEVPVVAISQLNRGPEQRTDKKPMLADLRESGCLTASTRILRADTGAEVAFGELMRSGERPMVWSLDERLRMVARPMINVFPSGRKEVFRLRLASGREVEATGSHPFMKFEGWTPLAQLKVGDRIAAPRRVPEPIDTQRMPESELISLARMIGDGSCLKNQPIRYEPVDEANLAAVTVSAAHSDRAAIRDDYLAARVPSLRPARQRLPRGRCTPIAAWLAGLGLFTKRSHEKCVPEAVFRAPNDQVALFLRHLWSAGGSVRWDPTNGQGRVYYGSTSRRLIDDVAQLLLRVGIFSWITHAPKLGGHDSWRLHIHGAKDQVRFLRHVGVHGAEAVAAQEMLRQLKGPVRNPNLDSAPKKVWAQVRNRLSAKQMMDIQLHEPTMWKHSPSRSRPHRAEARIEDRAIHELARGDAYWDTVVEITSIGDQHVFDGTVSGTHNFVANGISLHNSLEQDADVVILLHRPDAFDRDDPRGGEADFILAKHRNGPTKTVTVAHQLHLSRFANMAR

[10] = target: E3 ubiquitin-protein ligase UHRF1 (Homo sapiens, UniProt Q96T88); assay: Counterscreen for inhibitors of 5-meCpG-binding domain protein 2 (MBD2): TRFRET-based biochemical high throughput dose response assay to identify inhibitors of binding of ubiquitin-like with PHD and ring finger domains 1 (UHRF1) to methylated oligonucleotide.
[11] = target: G2/mitotic-specific cyclin-B1 (Homo sapiens, UniProt P14635); assay: G2/M cell cycle arrest in HeLa, late-stage follow-up, mechanism study for Wee1 degradation inhibitor project, FACS, panel member Cyclin B Degradation (AID 2088)
[12] = HEK293T cell cytotoxicity, dose response, cytotoxicity control for HIV Vif inhibitor project, cherry-picks (AID 652208); assay type: functional, cell-based
Wee1-like protein kinase = Wee1-like protein kinase (Homo sapiens, UniProt P30291); assay: G2/M cell cycle arrest in HeLa, late-stage follow-up, mechanism study for Wee1 degradation inhibitor project, FACS, panel member Wee1 Degradation (AID 2088)
[13] = target: T5, Photoreceptor-specific nuclear receptor (Homo sapiens, UniProt Q9Y5X4); assay type: functional, cell-based
[14] = target: Polyadenylate-binding protein 1 (Homo sapiens, UniProt P11940); assay: PABP poly(A) RNA binding inhibitors, primary screen, biochemical, fluorescence polarization, uHTS (AID 2014)
[15] = target: Eukaryotic translation initiation factor 4H (Homo sapiens, UniProt Q15056); assay: human eIF4H binding inhibitors, primary screen, translation initiation inhibitor project, biochemical, uHTS, fluorescence polarization (AID 2012)
[16] = target: T5, Photoreceptor-specific nuclear receptor; assay type: functional
[17] = target: Peroxisome proliferator-activated receptor gamma/Nuclear receptor corepressor 2 (Homo sapiens, UniProt P37231+Q9Y618); assay type: functional
[18] = target: Signal transducer and activator of transcription 3 (Homo sapiens, UniProt P40763); assay: STAT3 activators, late-stage profile, late-stage follow-up, cell-based, STAT1 reporter, BCL3 qPCR, cytotoxicity, panel member STAT3 Activation (AID 2049)
Procathepsin L = Procathepsin L (Homo sapiens, UniProt P07711)
Aspartyl aminopeptidase = Aspartyl aminopeptidase (Plasmodium falciparum 3D7, UniProt Q8I2J3)
Chain of Aspartyl aminopeptidase (Q8I2J3 whole entry): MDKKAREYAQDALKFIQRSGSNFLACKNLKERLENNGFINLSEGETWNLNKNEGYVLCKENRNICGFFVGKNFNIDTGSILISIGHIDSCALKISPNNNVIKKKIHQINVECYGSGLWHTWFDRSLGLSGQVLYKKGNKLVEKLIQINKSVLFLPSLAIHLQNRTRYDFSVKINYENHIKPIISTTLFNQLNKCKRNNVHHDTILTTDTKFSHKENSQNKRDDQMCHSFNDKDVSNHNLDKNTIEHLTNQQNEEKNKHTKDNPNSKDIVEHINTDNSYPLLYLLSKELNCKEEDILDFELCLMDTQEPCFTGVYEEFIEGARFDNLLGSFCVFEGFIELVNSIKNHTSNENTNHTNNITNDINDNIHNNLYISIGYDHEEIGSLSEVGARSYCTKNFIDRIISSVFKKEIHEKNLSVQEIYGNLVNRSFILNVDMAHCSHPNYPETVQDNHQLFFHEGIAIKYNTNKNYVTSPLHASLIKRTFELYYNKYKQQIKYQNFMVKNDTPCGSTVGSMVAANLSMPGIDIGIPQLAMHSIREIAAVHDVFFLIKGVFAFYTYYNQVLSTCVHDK

T5 sequence (Q9Y5X4 whole entry): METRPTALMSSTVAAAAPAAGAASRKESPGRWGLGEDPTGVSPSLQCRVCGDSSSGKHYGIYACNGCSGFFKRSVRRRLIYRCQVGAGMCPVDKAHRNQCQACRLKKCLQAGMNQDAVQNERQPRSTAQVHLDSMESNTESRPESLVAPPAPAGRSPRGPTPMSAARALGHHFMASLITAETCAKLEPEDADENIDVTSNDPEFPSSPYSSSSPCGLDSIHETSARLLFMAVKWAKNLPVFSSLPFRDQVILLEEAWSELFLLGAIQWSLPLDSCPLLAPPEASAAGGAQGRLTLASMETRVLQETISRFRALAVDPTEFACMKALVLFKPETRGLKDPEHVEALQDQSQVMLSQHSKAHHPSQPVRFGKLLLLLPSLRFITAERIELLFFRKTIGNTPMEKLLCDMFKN
Chain of G2/mitotic-specific cyclin-B1 (P14635 whole entry): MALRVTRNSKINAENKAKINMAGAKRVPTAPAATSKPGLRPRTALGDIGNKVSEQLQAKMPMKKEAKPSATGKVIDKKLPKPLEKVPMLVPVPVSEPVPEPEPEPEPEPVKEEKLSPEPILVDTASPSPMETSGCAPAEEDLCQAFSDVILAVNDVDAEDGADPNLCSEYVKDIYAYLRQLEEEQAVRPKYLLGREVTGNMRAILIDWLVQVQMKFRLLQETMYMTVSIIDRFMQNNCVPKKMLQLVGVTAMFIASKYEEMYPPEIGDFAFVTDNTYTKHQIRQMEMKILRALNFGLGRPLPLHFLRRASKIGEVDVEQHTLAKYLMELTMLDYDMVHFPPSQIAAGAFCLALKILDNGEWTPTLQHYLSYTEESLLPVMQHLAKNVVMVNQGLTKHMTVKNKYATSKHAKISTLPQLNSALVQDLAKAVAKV
Chain of Transitional endoplasmic reticulum ATPase (Homo sapiens, UniProt P55072, C522A) (P55072 2-806 C522A limits assumed): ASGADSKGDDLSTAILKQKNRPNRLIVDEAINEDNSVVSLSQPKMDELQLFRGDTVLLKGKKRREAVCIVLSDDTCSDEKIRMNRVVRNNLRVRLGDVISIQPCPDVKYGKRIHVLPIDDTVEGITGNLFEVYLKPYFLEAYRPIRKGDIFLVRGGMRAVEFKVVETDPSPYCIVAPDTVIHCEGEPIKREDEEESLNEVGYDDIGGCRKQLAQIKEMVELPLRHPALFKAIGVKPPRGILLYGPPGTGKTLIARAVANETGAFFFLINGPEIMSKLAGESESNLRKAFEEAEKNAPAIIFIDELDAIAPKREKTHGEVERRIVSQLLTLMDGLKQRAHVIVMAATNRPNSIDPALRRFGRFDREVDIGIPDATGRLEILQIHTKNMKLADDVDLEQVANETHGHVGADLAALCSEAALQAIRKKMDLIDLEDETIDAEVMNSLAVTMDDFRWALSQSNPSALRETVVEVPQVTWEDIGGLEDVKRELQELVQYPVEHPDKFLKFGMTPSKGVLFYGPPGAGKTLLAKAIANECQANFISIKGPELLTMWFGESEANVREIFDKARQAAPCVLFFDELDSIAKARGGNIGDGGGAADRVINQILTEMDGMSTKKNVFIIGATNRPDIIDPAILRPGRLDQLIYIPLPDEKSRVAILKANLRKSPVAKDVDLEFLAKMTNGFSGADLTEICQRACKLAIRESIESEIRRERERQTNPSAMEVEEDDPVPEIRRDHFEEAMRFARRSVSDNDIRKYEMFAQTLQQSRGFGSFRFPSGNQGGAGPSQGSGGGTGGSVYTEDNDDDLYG
Chain of Ras and Rab interactor 1/Tyrosine-protein kinase ABL1 (P00519 whole entry): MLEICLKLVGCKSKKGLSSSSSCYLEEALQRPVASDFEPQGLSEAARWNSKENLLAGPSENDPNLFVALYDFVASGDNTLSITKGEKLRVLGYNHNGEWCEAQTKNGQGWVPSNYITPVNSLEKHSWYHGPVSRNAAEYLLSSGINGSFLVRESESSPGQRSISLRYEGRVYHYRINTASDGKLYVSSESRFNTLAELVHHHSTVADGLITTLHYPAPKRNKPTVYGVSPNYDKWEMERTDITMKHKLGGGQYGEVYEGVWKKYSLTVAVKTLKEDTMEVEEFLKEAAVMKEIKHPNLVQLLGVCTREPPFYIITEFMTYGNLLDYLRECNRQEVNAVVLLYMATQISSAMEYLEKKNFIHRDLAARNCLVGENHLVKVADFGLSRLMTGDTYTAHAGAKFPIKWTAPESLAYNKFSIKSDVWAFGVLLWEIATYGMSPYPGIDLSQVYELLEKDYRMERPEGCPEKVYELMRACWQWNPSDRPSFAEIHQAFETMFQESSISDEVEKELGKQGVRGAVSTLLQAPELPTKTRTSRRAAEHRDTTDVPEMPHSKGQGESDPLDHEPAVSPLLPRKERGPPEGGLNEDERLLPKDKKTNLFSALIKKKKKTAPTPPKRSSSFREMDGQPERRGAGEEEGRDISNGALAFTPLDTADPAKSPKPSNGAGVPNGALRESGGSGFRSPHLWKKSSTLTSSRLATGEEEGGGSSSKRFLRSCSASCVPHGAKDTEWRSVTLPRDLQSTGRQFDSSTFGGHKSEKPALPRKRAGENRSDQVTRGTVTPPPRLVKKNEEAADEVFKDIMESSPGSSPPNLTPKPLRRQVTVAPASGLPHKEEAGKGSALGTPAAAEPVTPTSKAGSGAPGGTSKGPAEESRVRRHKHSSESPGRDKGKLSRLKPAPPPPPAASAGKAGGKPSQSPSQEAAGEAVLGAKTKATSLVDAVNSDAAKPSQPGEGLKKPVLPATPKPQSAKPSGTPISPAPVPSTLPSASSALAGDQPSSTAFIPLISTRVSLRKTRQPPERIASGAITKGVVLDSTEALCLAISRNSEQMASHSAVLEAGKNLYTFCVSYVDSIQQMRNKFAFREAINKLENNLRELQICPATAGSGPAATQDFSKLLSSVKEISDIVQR
Chain of Ras and Rab interactor 1/Tyrosine-protein kinase ABL1 (Q13671 whole entry): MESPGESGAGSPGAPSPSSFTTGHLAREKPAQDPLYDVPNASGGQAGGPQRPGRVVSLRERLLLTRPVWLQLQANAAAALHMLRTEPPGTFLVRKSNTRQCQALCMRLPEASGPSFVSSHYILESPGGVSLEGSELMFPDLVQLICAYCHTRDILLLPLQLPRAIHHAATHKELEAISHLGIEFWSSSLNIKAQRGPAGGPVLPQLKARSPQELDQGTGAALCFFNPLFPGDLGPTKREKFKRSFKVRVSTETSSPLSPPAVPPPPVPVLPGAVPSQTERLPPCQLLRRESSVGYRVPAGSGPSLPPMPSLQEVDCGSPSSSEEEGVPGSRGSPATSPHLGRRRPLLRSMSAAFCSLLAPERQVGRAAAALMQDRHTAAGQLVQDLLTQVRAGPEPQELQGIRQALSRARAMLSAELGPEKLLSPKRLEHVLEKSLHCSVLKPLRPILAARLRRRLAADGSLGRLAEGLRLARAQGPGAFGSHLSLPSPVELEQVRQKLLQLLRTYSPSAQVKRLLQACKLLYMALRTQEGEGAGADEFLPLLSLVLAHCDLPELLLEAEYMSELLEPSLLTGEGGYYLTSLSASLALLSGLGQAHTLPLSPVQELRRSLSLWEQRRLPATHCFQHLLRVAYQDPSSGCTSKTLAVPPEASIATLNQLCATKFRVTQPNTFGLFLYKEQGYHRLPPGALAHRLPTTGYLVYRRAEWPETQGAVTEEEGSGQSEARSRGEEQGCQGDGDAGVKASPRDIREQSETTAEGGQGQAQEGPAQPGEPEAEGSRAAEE
Chain of Wee1-like protein kinase (P30291 whole entry): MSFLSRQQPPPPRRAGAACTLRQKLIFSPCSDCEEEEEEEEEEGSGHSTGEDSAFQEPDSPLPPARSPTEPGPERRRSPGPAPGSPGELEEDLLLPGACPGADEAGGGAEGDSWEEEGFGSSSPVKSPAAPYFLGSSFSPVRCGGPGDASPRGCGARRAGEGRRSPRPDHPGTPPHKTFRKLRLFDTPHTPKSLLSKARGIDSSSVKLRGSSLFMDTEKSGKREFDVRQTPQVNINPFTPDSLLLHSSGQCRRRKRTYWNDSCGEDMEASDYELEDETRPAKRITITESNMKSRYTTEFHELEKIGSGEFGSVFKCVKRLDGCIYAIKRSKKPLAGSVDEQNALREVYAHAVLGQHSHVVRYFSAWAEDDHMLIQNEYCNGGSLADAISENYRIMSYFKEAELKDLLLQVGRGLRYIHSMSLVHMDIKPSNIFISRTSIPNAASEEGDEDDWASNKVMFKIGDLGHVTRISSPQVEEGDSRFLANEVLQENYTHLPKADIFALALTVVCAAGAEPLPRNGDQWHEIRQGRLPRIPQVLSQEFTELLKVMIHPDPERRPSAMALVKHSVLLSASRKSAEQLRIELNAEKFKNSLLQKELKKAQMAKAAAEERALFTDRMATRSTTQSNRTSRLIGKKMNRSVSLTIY

What does the source list for `O=S(=O)(Nc1cc2nc3ccccc3nc2n1Cc1ccccc1)c1ccc(Cl)cc1`?
IC50 [1]: 2.46 µM (active); IC50 [2]: 28.8 µM (inactive); IC50 [3]: > 50 µM (not active); EC50 (Protein RecA): 1.5 µM (active); EC50 [4]: > 260 µM (inactive); IC50 [5]: 4.93 µM (active); IC50 [6]: > 50 µM (not active); IC50 [7]: > 14.3 µM (inactive); IC50 [8]: > 73.5 µM (inactive); AC50 [9]: 10.1 µM (active); IC50 [10]: > 43.8 µM (inactive)

With `Cc1ccnc(NC(=O)CCCOc2cc(=O)n(C)c3ccccc23)c1` as the compound, how does the EC50 [11] read?
The EC50 was > 55.7 µM (inactive).

And the AC50 [12]?
Its AC50 is > 52 µM (inactive).

What about the EC50 (Wee1-like protein kinase) of the same compound?
The EC50 was > 6.19 µM (active).

What about the IC50 [13] of the same compound?
The IC50 was 2.97 µM (active).

Which results are given for `CCN(CC)CCCN=C1N[C@@H](c2ccccc2)C(C(=O)OC)=C(C)N1CC`?
IC50 [14]: 10.6 µM (active); IC50 [15]: > 100 µM (inactive)

For `O=C(C1=C(O)C(=O)N(CC2CCCO2)C1c1ccc(Cl)cc1Cl)c1ccco1` (configuration not stated), which IC50 [16] is on record?
Its IC50 is > 39.8 µM (not active).

And the IC50 [17]?
Its IC50 is 13.7 µM (not active).

With `COc1cc(OC)c(NC(=O)c2cc(CN3CCCC3)on2)cc1Cl` as the compound, how does the EC50 [18] read?
Its EC50 is > 55.7 µM (inactive).

With `O=C(NC(=S)Nn1cnnc1)c1ccccc1Br` as the compound, how does the IC50 (Procathepsin L) read?
The IC50 was > 59.6 µM (not active).

What about the IC50 (Aspartyl aminopeptidase) of the same compound?
The IC50 was 1.5 µM (active).
